Several values for one entry are separate records, joined by “and”; a condition that tells them apart may be missing. Equal values may be shown once.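 Results reflect a 48-hour exposure of cells in 96-well plates to compound at five concentrations. GI50 is the concentration that inhibits growth by half. The concentration for full growth arrest is given as TGI.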
What was measured:
Experiment in all cases: inhibition of tumour cell growth, NCI panel, 48 h
CAKI-1 renal = test system: CAKI-1 renal
RPMI-8226 leukemia = test system: RPMI-8226 leukemia
HCC-2998 colon = test system: HCC-2998 colon
MCF7 breast = test system: MCF7 breast
SF-295 CNS = test system: SF-295 CNS
SR leukemia = test system: SR leukemia
HCT-116 colon = test system: HCT-116 colon
786-0 renal = test system: 786-0 renal

| SMILES | TGI (CAKI-1 renal) | TGI (RPMI-8226 leukemia) [µM] | TGI (HCC-2998 colon) [µM] | TGI (MCF7 breast) [µM] | TGI (SF-295 CNS) [µM] | TGI (SR leukemia) [µM] | TGI (HCT-116 colon) [µM] | TGI (786-0 renal) [µM] | GI50 (MCF7 breast) |
| --- | --- | --- | --- | --- | --- | --- | --- | --- | --- |
| CN1C(=O)[C@](C)(Cc2ccc(F)cc2)N(C(=O)OC(C)(C)C)[C@@H]1C(C)(C)C | > 100 µM | 49.4 | 76.2 | 59.3 | 50.7 | 43.9 | > 100 | 68.4 | – |
| C/C(=N/NC(=O)c1ccccc1Nc1ccccc1C(=O)N/N=C(\C)c1ccc(C)cc1)c1ccc(C)cc1 | > 100 µM | > 100 | > 100 | > 100 | > 100 | > 100 | > 100 | > 100 | – |
| O=C1/C(=C/Cc2ccco2)N=C(c2ccccc2)N1c1nc2c(Cl)cc(Cl)cc2s1 | > 100 µM | 35.4 | > 100 | > 100 | > 100 | 38.7 | 81.2 | > 100 | – |
| N#Cc1c(NC(=S)Nc2ccccc2)sc2c1CCCC2 | > 100 µM | > 100 | > 100 | > 100 | > 100 | > 100 | > 100 | > 100 | – |
| COc1cc(C)c(S(=O)(=O)N(CCCN)OCCCN)c(C)c1C | > 100 µM | 49 | 57.1 | 53.1 | > 100 | 38.6 | > 100 | > 100 | – |
| COc1ccc(C2=C(N)c3cc(OC)ccc3C2=O)cc1 | > 100 µM | > 100 | > 100 | > 100 | > 100 | > 100 | > 100 | > 100 | – |
| Nc1nn2cc(-c3ccccc3)[n+](CC(=O)c3ccccc3)c2s1 | > 100 µM | 37.3 | 31.7 | 24.6 | > 100 | 48 | 30.3 | 40.2 | – |
| NC(=O)c1ccc(S(=O)(=NS(=O)(=O)c2ccccc2)c2ccc(C(N)=O)cc2)cc1 | > 100 µM | > 100 | > 100 | > 100 | > 100 | > 100 | > 100 | > 100 | – |
| O=S1(=O)OCCOS(=O)(=O)C1S(=O)(=O)c1cccc2ccccc12 | > 100 µM | > 100 | > 100 | > 100 | > 100 | > 100 | 57.1 | > 100 | – |
| CCN(CC)CCC1(C(=O)OC)SCCc2ccc(C)cc21 (stereo unspecified) | > 100 µM | > 100 | > 100 | > 100 | > 100 | > 100 | > 100 | > 100 | – |
| CCOC(=O)CCN1C(=O)c2c(NC(=O)C(=O)O)cccc2S1(=O)=O | > 100 µM | > 100 | > 100 | > 100 | > 100 | > 100 | > 100 | > 100 | – |
| Cc1cc(C)c(N)c(CO)c1 | > 32.1 µM and 27.5 µM | > 100 | > 100 | > 100 | > 100 | > 100 | > 100 | > 100 | 7.28 µM and 16 µM |
| CC(=O)N1C(=O)/C(=C\C(=O)c2ccc(Cl)cc2)c2ccccc21 | 27.6 µM | 97.1 | 31.5 | > 76.2 | 52.7 | 6.51 | 32.3 | 15.9 | – |
| COc1ccc(C2CCc3c(cnc4nc(N)nc(N)c34)C2)cc1 (stereo unspecified) | > 100 µM | > 100 | > 100 | 45.1 | > 100 | > 100 | > 100 | 26.8 | – |
| Cc1nc2ccccc2nc1N1CCCC1 | > 100 µM | > 100 | > 100 | > 100 | > 100 | > 100 | > 100 | > 100 | – |
| C[C@@H]1CC(=O)[C@@]2(C)[C@](O)(CCC3O[C@]32C)[C@@]12CC(c1ccoc1)OC2=O (stereo partly specified) | > 100 µM | > 100 | > 100 | > 100 | > 100 | 68.5 | > 100 | > 100 | – |
| Cc1nc2cccc(F)c2c(=O)n1-c1nnc(C2CC2)s1 | > 10 µM | > 10 | > 10 | > 10 | > 10 | > 10 | > 10 | > 10 | – |
| CO/C=C(/C(=O)OC)c1ccccc1[C@H]1C[C@@H]1c1ccccc1 | 52.6 µM | 38.1 | 76.2 | > 100 | 98.2 | 76.5 | 62.5 | > 100 | – |
| CCOC(=O)N1c2c(c3ccccc3n2C(=O)OCC)C(=O)C(OC)N1C(=O)OCC (stereo unspecified) | 93.9 µM | > 100 | > 100 | > 100 | 59.4 | 45.1 | 86.9 | > 100 | – |
| O=C(OCC(OC(=O)c1ccccc1)C1CC(C(O)C2CCCCC2)C(=O)O1)c1ccccc1 (stereo unspecified) | > 100 µM | 78.9 | > 100 | 96.7 | > 100 | 44.8 | > 100 | > 100 | – |
